Numbered stars: 1 amine (or outer) side, 2 acyl side, 3 side chain; on linkers, the order of the positions; unused ones are H or OH. Square brackets hold non-standard residues; d marks the D form. Side chains are listed from the residue outwards. Peptide text beside a SMILES is read from it. * marks the point of attachment. C20 diacid = O=C(O)CCCCCCCCCCCCCCCCCCC(=O)*; C18 diacid = O=C(O)CCCCCCCCCCCCCCCCC(=O)*; γGlu = O=C(O)[C@H](CCC(=O)[*:2])N[*:1]; AEEA = NCCOCCOCC(=O)O; Aib = CC(C)(N)C(=O)O
Target: T1, GC receptor (Homo sapiens, UniProt P47871)
T1 construct: expressed in transfected cells; host or cells: HEK293 cells
T1 sequence (P47871 26-477): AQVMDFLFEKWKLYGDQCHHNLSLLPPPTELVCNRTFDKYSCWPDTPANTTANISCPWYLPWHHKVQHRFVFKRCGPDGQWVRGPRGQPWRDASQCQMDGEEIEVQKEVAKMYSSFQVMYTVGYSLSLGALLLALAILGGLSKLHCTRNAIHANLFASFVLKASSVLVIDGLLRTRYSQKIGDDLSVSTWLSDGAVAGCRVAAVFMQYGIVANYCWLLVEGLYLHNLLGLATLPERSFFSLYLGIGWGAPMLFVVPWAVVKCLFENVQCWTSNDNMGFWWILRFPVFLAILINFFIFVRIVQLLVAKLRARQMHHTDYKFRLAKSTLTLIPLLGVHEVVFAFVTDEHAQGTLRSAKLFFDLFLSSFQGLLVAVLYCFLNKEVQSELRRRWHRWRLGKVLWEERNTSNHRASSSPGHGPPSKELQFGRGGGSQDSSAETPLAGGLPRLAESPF
Experiment: GC receptor mediated cAMP production in vitro (HEK293 cells transfected with GC receptor)
Type: cell-based
Conditions: 20 min at 37° C., read-out: GCGR (nM EC50)
From the text: The medium was removed, the cells were lysed, and cAMP values were detected referring to the detection method described for the assay kit.

EC50 [nM]	SMILES
0.486	CC(C)C[C@H](NC(=O)[C@H](Cc1c[nH]c2ccccc12)NC(=O)[C@H](C)NC(=O)[C@@H](NC(=O)[C@H](Cc1ccccc1)NC(=O)[C@H](CCC(=O)O)NC(=O)[C@H](CCCCN)NC(=O)[C@H](C)NC(=O)[C@H](C)NC(=O)[C@H](CCCNC(=N)N)NC(=O)[C@H](CCC(=O)O)NC(=O)[C@H](CCC(=O)O)NC(=O)[C@H](CC(C)C)NC(=O)[C@H](Cc1ccc(O)cc1)NC(=O)[C@H](CCCCN)NC(=O)[C@H](CO)NC(=O)[C@H](CCCCNC(=O)COCCOCCNC(=O)COCCOCCNC(=O)CC[C@H](NC(=O)CCCCCCCCCCCCCCCCC(=O)O)C(=O)O)NC(=O)[C@H](CC(=O)O)NC(=O)[C@H](CO)NC(=O)[C@@H](NC(=O)[C@H](Cc1ccccc1)NC(=O)[C@@H](NC(=O)CNC(=O)[C@H](CCC(N)=O)NC(=O)C(C)(C)NC(=O)[C@@H](N)Cc1c[nH]cn1)[C@@H](C)O)[C@@H](C)O)C(C)C)C(=O)N[C@@H](CCCCN)C(=O)N[C@@H](CCC(=O)O)C(=O)NCC(=O)NCC(=O)N1CCC[C@H]1C(=O)N[C@@H](CO)C(=O)N[C@@H](CO)C(=O)NCC(N)=O [Compound 17] (H-H[Aib]QGTFTSDK([AEEA-AEEA-γGlu-C18 diacid])SKYLEERAAKEFVAWLKEGGPSSG-NH2; N-terminus assumed)
0.725	CC(C)C[C@H](NC(=O)[C@H](Cc1c[nH]c2ccccc12)NC(=O)[C@H](C)NC(=O)[C@@H](NC(=O)[C@H](Cc1ccccc1)NC(=O)[C@H](CCC(=O)O)NC(=O)[C@H](CCCCNC(=O)COCCOCCNC(=O)COCCOCCNC(=O)CC[C@H](NC(=O)CCCCCCCCCCCCCCCCC(=O)O)C(=O)O)NC(=O)[C@H](C)NC(=O)[C@H](CCCNC(=N)N)NC(=O)[C@H](CCCCN)NC(=O)[C@H](CCC(=O)O)NC(=O)[C@H](CCC(=O)O)NC(=O)[C@H](CC(C)C)NC(=O)[C@H](Cc1ccc(O)cc1)NC(=O)[C@H](CCCCN)NC(=O)[C@H](CO)NC(=O)[C@H](Cc1ccc(O)cc1)NC(=O)[C@H](CC(=O)O)NC(=O)[C@H](CO)NC(=O)[C@@H](NC(=O)[C@H](Cc1ccccc1)NC(=O)[C@@H](NC(=O)CNC(=O)[C@H](CCC(N)=O)NC(=O)C(C)(C)NC(=O)[C@@H](N)Cc1c[nH]cn1)[C@@H](C)O)[C@@H](C)O)C(C)C)C(=O)N[C@@H](CCC(=O)O)C(=O)NCC(=O)NCC(=O)N1CCC[C@H]1C(=O)N[C@@H](CO)C(=O)N[C@@H](CO)C(=O)NCC(N)=O [Compound 74] (H-H[Aib]QGTFTSDYSKYLEEKRAK([AEEA-AEEA-γGlu-C18 diacid])EFVAWLEGGPSSG-NH2; N-terminus assumed)
0.219	CC[C@H](C)[C@H](NC(=O)[C@H](Cc1ccccc1)NC(=O)[C@H](CCC(=O)O)NC(=O)[C@H](CCCCNC(=O)COCCOCCNC(=O)COCCOCCNC(=O)CC[C@H](NC(=O)CCCCCCCCCCCCCCCCC(=O)O)C(=O)O)NC(=O)[C@H](C)NC(=O)[C@H](CCCCN)NC(=O)[C@H](CCCNC(=N)N)NC(=O)[C@H](CCC(=O)O)NC(=O)[C@H](CCC(=O)O)NC(=O)[C@H](CC(C)C)NC(=O)[C@H](Cc1ccc(O)cc1)NC(=O)[C@H](CCCCN)NC(=O)[C@H](CO)NC(=O)[C@H](Cc1ccc(O)cc1)NC(=O)[C@H](CC(=O)O)NC(=O)[C@H](CO)NC(=O)[C@@H](NC(=O)[C@H](Cc1ccccc1)NC(=O)[C@@H](NC(=O)CNC(=O)[C@H](CCC(N)=O)NC(=O)C(C)(C)NC(=O)[C@@H](N)Cc1c[nH]cn1)[C@@H](C)O)[C@@H](C)O)C(=O)N[C@@H](C)C(=O)N[C@@H](Cc1c[nH]c2ccccc12)C(=O)N[C@@H](CC(C)C)C(=O)N[C@@H](CCC(=O)O)C(=O)N[C@@H](C)C(=O)NCC(=O)NCC(=O)N1CCC[C@H]1C(=O)N[C@@H](CO)C(=O)N[C@@H](CO)C(=O)NCC(N)=O [Compound 44] (H-H[Aib]QGTFTSDYSKYLEERKAK([AEEA-AEEA-γGlu-C18 diacid])EFIAWLEAGGPSSG-NH2; N-terminus assumed)
0.025	CC[C@H](C)[C@H](NC(=O)[C@H](Cc1ccccc1)NC(=O)[C@H](CCC(=O)O)NC(=O)[C@H](CCCCN)NC(=O)[C@H](C)NC(=O)[C@H](C)NC(=O)[C@H](CCCNC(=N)N)NC(=O)[C@H](CCC(=O)O)NC(=O)[C@H](CC(=O)O)NC(=O)[C@H](CC(C)C)NC(=O)[C@H](Cc1ccc(O)cc1)NC(=O)[C@H](CCCCN)NC(=O)[C@H](CO)NC(=O)[C@H](CCCCNC(=O)COCCOCCNC(=O)COCCOCCNC(=O)CC[C@H](NC(=O)CCCCCCCCCCCCCCCCC(=O)O)C(=O)O)NC(=O)[C@H](CC(=O)O)NC(=O)[C@H](CO)NC(=O)[C@@H](NC(=O)[C@H](Cc1ccccc1)NC(=O)[C@@H](NC(=O)CNC(=O)[C@H](CCC(N)=O)NC(=O)[C@H](CO)NC(=O)[C@@H](N)Cc1c[nH]cn1)[C@@H](C)O)[C@@H](C)O)C(=O)N[C@@H](C)C(=O)N[C@@H](Cc1c[nH]c2ccccc12)C(=O)N[C@@H](CC(C)C)C(=O)N[C@@H](CCC(=O)O)C(=O)N[C@@H](C)C(=O)NCC(=O)NCC(=O)N1CCC[C@H]1C(=O)N[C@@H](CO)C(=O)N[C@@H](CO)C(=O)NCC(N)=O [Compound 79] (H-HSQGTFTSDK([AEEA-AEEA-γGlu-C18 diacid])SKYLDERAAKEFIAWLEAGGPSSG-NH2; N-terminus assumed)
6.25	CCCCCCCCCCCCCCCC(=O)N[C@@H](CCC(=O)N[C@@H](CCC(=O)NCCCC[C@H](NC(=O)[C@H](CC(=O)O)NC(=O)[C@H](CO)NC(=O)[C@@H](NC(=O)[C@H](Cc1ccccc1)NC(=O)[C@@H](NC(=O)CNC(=O)[C@H](CCC(N)=O)NC(=O)C(C)(C)NC(=O)[C@@H](N)Cc1c[nH]cn1)[C@@H](C)O)[C@@H](C)O)C(=O)N[C@@H](CO)C(=O)N[C@@H](CCCCN)C(=O)N[C@@H](Cc1ccc(O)cc1)C(=O)N[C@@H](CC(C)C)C(=O)N[C@@H](CCC(=O)O)C(=O)N[C@@H](CO)C(=O)N[C@@H](CCC(=O)O)C(=O)N[C@@H](CCCNC(=N)N)C(=O)N[C@@H](C)C(=O)N[C@@H](CCCCN)C(=O)N[C@@H](CCC(=O)O)C(=O)N[C@@H](Cc1ccccc1)C(=O)N[C@H](C(=O)N[C@@H](CCC(=O)O)C(=O)N[C@@H](Cc1c[nH]c2ccccc12)C(=O)N[C@@H](CC(C)C)C(=O)N[C@H](C(=O)N[C@@H](CCCCN)C(=O)N[C@@H](CCC(=O)O)C(=O)NCC(=O)NCC(=O)N1CCC[C@H]1C(=O)N[C@@H](CO)C(=O)N[C@@H](CO)C(=O)NCC(N)=O)C(C)C)C(C)C)C(=O)O)C(=O)O [Compound 19] (HELM PEPTIDE1{H.[Aib].Q.G.T.F.T.S.D.K.S.K.Y.L.E.S.E.R.A.K.E.F.V.E.W.L.V.K.E.G.G.P.S.S.G.[am]}|PEPTIDE2{[CCCCCCCCCCCCCCCC(=O)[*:2]].[gGlu].[gGlu]}$PEPTIDE1,PEPTIDE2,10:R3-3:R2$$$V2.0; N-terminus assumed)
0.102	CC[C@H](C)[C@H](NC(=O)[C@H](Cc1ccccc1)NC(=O)[C@H](CCC(=O)O)NC(=O)[C@H](CCCCNC(=O)COCCOCCNC(=O)COCCOCCNC(=O)CC[C@H](NC(=O)CCCCCCCCCCCCCCCCC(=O)O)C(=O)O)NC(=O)[C@H](C)NC(=O)[C@H](C)NC(=O)[C@H](CCCNC(=N)N)NC(=O)[C@H](CCC(=O)O)NC(=O)[C@H](CC(=O)O)NC(=O)[C@H](CC(C)C)NC(=O)[C@H](Cc1ccc(O)cc1)NC(=O)[C@H](CCCCN)NC(=O)[C@H](CO)NC(=O)[C@H](Cc1ccc(O)cc1)NC(=O)[C@H](CC(=O)O)NC(=O)[C@H](CO)NC(=O)[C@@H](NC(=O)[C@H](Cc1ccccc1)NC(=O)[C@@H](NC(=O)CNC(=O)[C@H](CCC(N)=O)NC(=O)[C@H](CO)NC(=O)[C@@H](N)Cc1c[nH]cn1)[C@@H](C)O)[C@@H](C)O)C(=O)N[C@@H](C)C(=O)N[C@@H](Cc1c[nH]c2ccccc12)C(=O)N[C@@H](CC(C)C)C(=O)N[C@@H](CCC(=O)O)C(=O)NCC(=O)NCC(=O)N1CCC[C@H]1C(=O)N[C@@H](CO)C(=O)N[C@@H](CO)C(=O)NCC(N)=O [Compound 38] (H-HSQGTFTSDYSKYLDERAAK([AEEA-AEEA-γGlu-C18 diacid])EFIAWLEGGPSSG-NH2; N-terminus assumed)
0.329	CC[C@H](C)[C@H](NC(=O)[C@H](Cc1ccccc1)NC(=O)[C@H](CCC(=O)O)NC(=O)[C@H](CCCCN)NC(=O)[C@H](C)NC(=O)[C@H](CCCNC(=N)N)NC(=O)[C@H](CCCCN)NC(=O)[C@H](CCC(=O)O)NC(=O)[C@H](CC(=O)O)NC(=O)[C@H](CC(C)C)NC(=O)[C@H](Cc1ccc(O)cc1)NC(=O)[C@H](CCCCN)NC(=O)[C@H](CO)NC(=O)[C@H](CCCCNC(=O)COCCOCCNC(=O)COCCOCCNC(=O)CC[C@H](NC(=O)CCCCCCCCCCCCCCCCC(=O)O)C(=O)O)NC(=O)[C@H](CC(=O)O)NC(=O)[C@H](CO)NC(=O)[C@@H](NC(=O)[C@H](Cc1ccccc1)NC(=O)[C@@H](NC(=O)CNC(=O)[C@H](CCC(N)=O)NC(=O)C(C)(C)NC(=O)[C@@H](N)Cc1c[nH]cn1)[C@@H](C)O)[C@@H](C)O)C(=O)N[C@@H](CCC(=O)O)C(=O)N[C@@H](Cc1c[nH]c2ccccc12)C(=O)N[C@@H](CC(C)C)C(=O)N[C@@H](CCC(=O)O)C(=O)N[C@@H](C)C(=O)NCC(=O)NCC(=O)N1CCC[C@H]1C(=O)N[C@@H](CO)C(=O)N[C@@H](CO)C(=O)NCC(N)=O [Compound 23] (H-H[Aib]QGTFTSDK([AEEA-AEEA-γGlu-C18 diacid])SKYLDEKRAKEFIEWLEAGGPSSG-NH2; N-terminus assumed)
0.314	CC[C@H](C)[C@H](NC(=O)[C@H](Cc1ccccc1)NC(=O)[C@H](CCC(=O)O)NC(=O)[C@H](CCCCNC(=O)COCCOCCNC(=O)COCCOCCNC(=O)CC[C@H](NC(=O)CCCCCCCCCCCCCCCCCCC(=O)O)C(=O)O)NC(=O)[C@H](C)NC(=O)[C@H](CCCCN)NC(=O)[C@H](CCCNC(=N)N)NC(=O)[C@H](CCC(=O)O)NC(=O)[C@H](CCC(=O)O)NC(=O)[C@H](CC(C)C)NC(=O)[C@H](Cc1ccc(O)cc1)NC(=O)[C@H](CCCCN)NC(=O)[C@H](CO)NC(=O)[C@H](Cc1ccc(O)cc1)NC(=O)[C@H](CC(=O)O)NC(=O)[C@H](CO)NC(=O)[C@@H](NC(=O)[C@H](Cc1ccccc1)NC(=O)[C@@H](NC(=O)CNC(=O)[C@H](CCC(N)=O)NC(=O)C(C)(C)NC(=O)[C@@H](N)Cc1c[nH]cn1)[C@@H](C)O)[C@@H](C)O)C(=O)N[C@@H](C)C(=O)N[C@@H](Cc1c[nH]c2ccccc12)C(=O)N[C@@H](CC(C)C)C(=O)N[C@@H](CCC(=O)O)C(=O)NCC(=O)NCC(=O)N1CCC[C@H]1C(=O)N[C@@H](CO)C(=O)N[C@@H](CO)C(=O)NCC(N)=O [Compound 68] (H-H[Aib]QGTFTSDYSKYLEERKAK([AEEA-AEEA-γGlu-C20 diacid])EFIAWLEGGPSSG-NH2; N-terminus assumed)

From patent US12257287B2, “Glucagon-derived peptide and use thereof” (Tianjin Institute of Pharmaceutical Research Co., Ltd., priority 2018, dated 2025)
